This note sets out measurements from PubChem BioAssay (NCI).

Some test systems named below: A549 NSCLC; HCC-2998 colon; SK-MEL-2 melanoma; HCT-15 colon; SN12C renal; LOX IMVI melanoma; HL-60(TB) leukemia; A498 renal; COLO 205 colon; EKVX NSCLC; OVCAR-3 ovarian; NCI/ADR-RES ovarian; HT29 colon; HS 578T breast; UO-31 renal; OVCAR-4 ovarian; HCT-116 colon; K-562 leukemia; CAKI-1 renal.
Assay in all cases: inhibition of tumour cell growth, NCI panel, 48 h

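Results reflect a 48-hour exposure of cells in 96-well plates to compound at five concentrations. TGI denotes the concentration required for complete inhibition of growth.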

Consider `C=CCN1CCC(OC(=O)C(O)(C#CC)C2CCCC2)CC1` (stereo not drawn), for which the TGI with A549 NSCLC, with HCC-2998 colon, in the test on SK-MEL-2 melanoma, in the test on HCT-15 colon, in the test on SN12C renal and in the test on LOX IMVI melanoma was above 100 µM in each case. The TGI in the test on HL-60(TB) leukemia, in the test on A498 renal, in the test on COLO 205 colon, in the test on EKVX NSCLC, in the test on OVCAR-3 ovarian and with NCI/ADR-RES ovarian was above 100 µM each time. Also, the TGI in the test with HT29 colon, in the test with HS 578T breast, in the test with UO-31 renal, in the test on OVCAR-4 ovarian, with HCT-116 colon and in the test on K-562 leukemia was above 100 µM throughout. In addition, the TGI in the test with CAKI-1 renal is above 100 µM.
Take `O=c1cc(NCCCCCO)[nH]c(=O)[nH]1`: the TGI in the test on A549 NSCLC, with HCC-2998 colon, in the test with SK-MEL-2 melanoma, with HCT-15 colon, in the test with SN12C renal and in the test on LOX IMVI melanoma was above 100 µM in each case. Further, the TGI in the test with HL-60(TB) leukemia, with A498 renal, in the test on COLO 205 colon, in the test with EKVX NSCLC, in the test with OVCAR-3 ovarian and in the test on NCI/ADR-RES ovarian was above 100 µM throughout. For the same compound, the TGI in the test with HT29 colon, with HS 578T breast, in the test with UO-31 renal, in the test on OVCAR-4 ovarian, in the test on HCT-116 colon and in the test on K-562 leukemia was above 100 µM throughout. For the same compound, the TGI with CAKI-1 renal is above 100 µM.
`CCC(C#N)(c1ccccc1)N(CCc1ccccc1)C(=O)c1ccccc1` (stereo not drawn): the TGI in the test on A549 NSCLC, in the test on HCC-2998 colon, in the test on SK-MEL-2 melanoma, in the test with HCT-15 colon, with SN12C renal and in the test with LOX IMVI melanoma was above 100 µM in each case. In addition, the TGI in the test with HL-60(TB) leukemia was above 100 µM; in the test on A498 renal, 79.6 µM; with COLO 205 colon, above 100 µM; in the test with EKVX NSCLC, above 100 µM; with OVCAR-3 ovarian it was above 100 µM; with NCI/ADR-RES ovarian, above 100 µM. The TGI in the test on HT29 colon was above 100 µM; in the test with HS 578T breast, 69.6 µM; in the test on UO-31 renal, above 100 µM; with OVCAR-4 ovarian it was 44 µM; in the test on HCT-116 colon, above 100 µM; in the test on K-562 leukemia, above 100 µM. In addition, in the test with CAKI-1 renal, the TGI was above 100 µM.
Turning to `CC(=O)OC1=c2ccccc2=C(O)C2C1C=NN2C(C)=O` (stereo not drawn), the TGI with A549 NSCLC, in the test with HCC-2998 colon, in the test with SK-MEL-2 melanoma, in the test with HCT-15 colon, in the test with SN12C renal and in the test with LOX IMVI melanoma was above 100 µM in each case. Also, the TGI with HL-60(TB) leukemia, in the test on A498 renal, in the test with COLO 205 colon, with EKVX NSCLC, in the test on OVCAR-3 ovarian and with NCI/ADR-RES ovarian was above 100 µM each time. Moreover, the TGI in the test on HT29 colon, with HS 578T breast, with UO-31 renal, in the test on OVCAR-4 ovarian, in the test on HCT-116 colon and in the test on K-562 leukemia was above 100 µM each time. The TGI in the test on CAKI-1 renal was above 100 µM.
Regarding `CC1(C)CC(=O)C(CCC(=O)/C=C/c2ccccc2)C(=O)C1`, the TGI in the test with A549 NSCLC, in the test on HCC-2998 colon, in the test on SK-MEL-2 melanoma, with HCT-15 colon, in the test with SN12C renal and in the test with LOX IMVI melanoma was above 100 µM each time. In addition, the TGI in the test with HL-60(TB) leukemia, in the test on A498 renal, with COLO 205 colon, in the test with EKVX NSCLC, in the test with OVCAR-3 ovarian and in the test with NCI/ADR-RES ovarian was above 100 µM each time. The TGI in the test with HT29 colon, in the test on HS 578T breast, with UO-31 renal, in the test on OVCAR-4 ovarian, in the test on HCT-116 colon and in the test on K-562 leukemia was above 100 µM each time. In the test on CAKI-1 renal, this compound displayed a TGI above 100 µM.
Turning to `COc1cc(C2SCC(=O)N2c2cc(Cl)c(Cl)cc2Cl)cc(OC)c1OC` (stereo not drawn), the TGI with A549 NSCLC, in the test on HCC-2998 colon, in the test on SK-MEL-2 melanoma, in the test with HCT-15 colon, in the test with SN12C renal and in the test on LOX IMVI melanoma was above 100 µM each time. In addition, the TGI with HL-60(TB) leukemia, in the test on A498 renal, with COLO 205 colon, in the test with EKVX NSCLC, with OVCAR-3 ovarian and in the test on NCI/ADR-RES ovarian was above 100 µM each time. Also, the TGI in the test with HT29 colon, with HS 578T breast, in the test on UO-31 renal, with OVCAR-4 ovarian, in the test with HCT-116 colon and in the test with K-562 leukemia was above 100 µM each time. The compound also yielded a TGI in the test with CAKI-1 renal above 100 µM.
In the case of `O=C1c2c(Cl)c(Cl)c(Cl)c(Cl)c2C(=O)N1CCN(c1c(Cl)ssc1=O)c1c(Cl)ssc1=O`, the TGI with A549 NSCLC was above 100 µM; in the test with HCC-2998 colon, 58.8 µM; with SK-MEL-2 melanoma, 54.3 µM; in the test with HCT-15 colon, 41.1 µM; in the test on SN12C renal it was 47.7 µM; with LOX IMVI melanoma, 48.5 µM. Besides, the TGI in the test on HL-60(TB) leukemia was above 100 µM; in the test with A498 renal, above 100 µM; in the test with COLO 205 colon, 35 µM; in the test on EKVX NSCLC it was 88.6 µM; in the test with OVCAR-3 ovarian, 36.6 µM; with NCI/ADR-RES ovarian it was above 100 µM. Also, the TGI with HT29 colon is 35.6 µM; in the test with HS 578T breast, above 100 µM; in the test on UO-31 renal, 32.3 µM; with OVCAR-4 ovarian, 40.2 µM; with HCT-116 colon, 29.9 µM; in the test with K-562 leukemia, 53.4 µM. For the same compound, the TGI in the test on CAKI-1 renal was determined as 34.7 µM.
